Values of other authors, collected in patent US12225905B2, “Antimicrobial superabsorbent compositions” (Matoke Holdings Limited, priority 2017, dated 2025).

Conditions: 20° C. and 1 atm

## O=C(CO)[C@@H](O)[C@H](O)[C@H](O)CO [Fructose]
  solubility: about 375 g/100 g water
